Among the data in patent US8124610B2, “Sodium channel inhibitors” (Icagen Inc., priority 2007, dated 2012) are IC50 values, retold here.

Molecules are shown by their SMILES. Read-outs that look alike come from different tables or passages of the source.

Assay [1] addresses T1, hSCN3A (Homo sapiens, UniProt Q9NY46).
T1 construct: expressed in transfected cells
In words: Whole-cell patch-clamp electrophysiology (conventional or PatchXpress), HEK cells expressing hSCN3A, estimated IC-50. The assay is classed as cell-based. The note with it: read-out: SCN3A EIC-50. On the procedure:
Human Embryonic Kidney (HEK) cells were transfected with hSCN3A or hSCN9A constructs using lipofectamine reagent (Invitrogen), using standard techniques. Cells stably expressing the hSCN3A or hSCN9A constructs were identified by their resistance to G-418 (400 μg/ml). Clones were screened for expression using the whole-cell voltage-clamp technique. HEK cells stably transfected with hSCN3A or hSCN9A were maintained in DMEM medium supplemented with 10% heat-inactivated fetal bovine serum and 400 μg/ml G418 sulfate in an incubator at 37° C. with a humidified atmosphere of 10% CO2. For HTS, cells were harvested from flasks by trypsinization and replated in an appropriate multi-well plate (typically 96 or 384 wells/plate) such that confluence would be achieved within 24 hours of plating. For electrophysiological studies, cells were removed from the culture flask by brief trypsinization and replated at low density onto glass cover slips. Cells were typically used for electrophysiological experiments within 24 to 72 h after plating. Cover slips containing HEK cells expressing hSCN3A or hSCN9A were placed in a bath on the stage of an inverted microscope and perfused (approximately 1 ml/min) with extracellular solution of the following composition: 138 mM NaCl, 2 mM CaCl2, 5.4 mM KCl, 1 mM MgCl2, 10 mM glucose, and 10 mM HEPES, pH 7.4, with NaOH. […] All recordings were made at room temperature (22-24° C.) using AXOPATCH 200B amplifiers and PCLAMP software (Axon Instruments, Burlingame, Calif.) or PatchXpress 7000 hardware and associated software (Axon Instruments, Burlingame, Calif.). hSCN3A or hSCN9A currents in HEK cells were measured using the whole-cell configuration of the patch-clamp technique (Hamill et al., 1981). […] As a result, voltage errors were negligible and no correction was applied. Current records were acquired at 20 to 50 KHz and filtered at 5 to 10 KHz. HEK cells stably transfected with hSCN3A or hSCN9A were viewed under Hoffman contrast optics and placed in front of an array of flow pipes emitting either control or compound-containing extracellular solutions. All compounds were dissolved in dimethyl sulfoxide to make 10 mM stock solutions, which were then diluted into extracellular solution to attain the final concentrations desired. […] The voltage-dependence of inactivation was determined by applying a series of depolarizing prepulses (8 sec long in 10 mV increments) from a negative holding potential. The voltage was then immediately stepped to 0 mV to assess the magnitude of the sodium current. Currents elicited at 0 mV were plotted as a function of prepulse potential to allow estimation of the voltage midpoint of inactivation (V1/2). Cells were then voltage clamped at the empirically determined V1/2. Compounds were tested for their ability to inhibit hSCN3A or hSCN9A sodium channels by activating the channel with a 20 msec voltage step to 0 mV following an 8 second conditioning prepulse to the empirically determined V1-2 (Table B). Compound effect (% inhibition) was determined by difference in current amplitude before and after application of test compounds. […] In some cases electrophysiological assays were conducted with PatchXpress 7000 hardware and associated software (Molecular Devices Corp) (Table B). All assay buffers and solutions were identical to those used in conventional whole-cell voltage clamp experiments described above. hSCN3A or hSCN9A containing cells were grown as above to 50%-80% confluency and harvested by trypsinization. Trypsinized cells were washed and resuspended in extracellular buffer at a concentration of 1×10^6 cells/ml. The onboard liquid handling facility of the PatchXpress was used for dispensing cells and application of test compounds. Determination of the voltage midpoint of inactivation was as described for conventional whole-cell recordings. Cells were then voltage-clamped to the empirically determined V1/2 and current was activated by a 20 msec voltage step to 0 mV.

In assay [2] the target is T2, hSCN9A (Homo sapiens, UniProt Q15858).
T2 construct: expressed in transfected cells
T2 sequence (Q15858 whole entry): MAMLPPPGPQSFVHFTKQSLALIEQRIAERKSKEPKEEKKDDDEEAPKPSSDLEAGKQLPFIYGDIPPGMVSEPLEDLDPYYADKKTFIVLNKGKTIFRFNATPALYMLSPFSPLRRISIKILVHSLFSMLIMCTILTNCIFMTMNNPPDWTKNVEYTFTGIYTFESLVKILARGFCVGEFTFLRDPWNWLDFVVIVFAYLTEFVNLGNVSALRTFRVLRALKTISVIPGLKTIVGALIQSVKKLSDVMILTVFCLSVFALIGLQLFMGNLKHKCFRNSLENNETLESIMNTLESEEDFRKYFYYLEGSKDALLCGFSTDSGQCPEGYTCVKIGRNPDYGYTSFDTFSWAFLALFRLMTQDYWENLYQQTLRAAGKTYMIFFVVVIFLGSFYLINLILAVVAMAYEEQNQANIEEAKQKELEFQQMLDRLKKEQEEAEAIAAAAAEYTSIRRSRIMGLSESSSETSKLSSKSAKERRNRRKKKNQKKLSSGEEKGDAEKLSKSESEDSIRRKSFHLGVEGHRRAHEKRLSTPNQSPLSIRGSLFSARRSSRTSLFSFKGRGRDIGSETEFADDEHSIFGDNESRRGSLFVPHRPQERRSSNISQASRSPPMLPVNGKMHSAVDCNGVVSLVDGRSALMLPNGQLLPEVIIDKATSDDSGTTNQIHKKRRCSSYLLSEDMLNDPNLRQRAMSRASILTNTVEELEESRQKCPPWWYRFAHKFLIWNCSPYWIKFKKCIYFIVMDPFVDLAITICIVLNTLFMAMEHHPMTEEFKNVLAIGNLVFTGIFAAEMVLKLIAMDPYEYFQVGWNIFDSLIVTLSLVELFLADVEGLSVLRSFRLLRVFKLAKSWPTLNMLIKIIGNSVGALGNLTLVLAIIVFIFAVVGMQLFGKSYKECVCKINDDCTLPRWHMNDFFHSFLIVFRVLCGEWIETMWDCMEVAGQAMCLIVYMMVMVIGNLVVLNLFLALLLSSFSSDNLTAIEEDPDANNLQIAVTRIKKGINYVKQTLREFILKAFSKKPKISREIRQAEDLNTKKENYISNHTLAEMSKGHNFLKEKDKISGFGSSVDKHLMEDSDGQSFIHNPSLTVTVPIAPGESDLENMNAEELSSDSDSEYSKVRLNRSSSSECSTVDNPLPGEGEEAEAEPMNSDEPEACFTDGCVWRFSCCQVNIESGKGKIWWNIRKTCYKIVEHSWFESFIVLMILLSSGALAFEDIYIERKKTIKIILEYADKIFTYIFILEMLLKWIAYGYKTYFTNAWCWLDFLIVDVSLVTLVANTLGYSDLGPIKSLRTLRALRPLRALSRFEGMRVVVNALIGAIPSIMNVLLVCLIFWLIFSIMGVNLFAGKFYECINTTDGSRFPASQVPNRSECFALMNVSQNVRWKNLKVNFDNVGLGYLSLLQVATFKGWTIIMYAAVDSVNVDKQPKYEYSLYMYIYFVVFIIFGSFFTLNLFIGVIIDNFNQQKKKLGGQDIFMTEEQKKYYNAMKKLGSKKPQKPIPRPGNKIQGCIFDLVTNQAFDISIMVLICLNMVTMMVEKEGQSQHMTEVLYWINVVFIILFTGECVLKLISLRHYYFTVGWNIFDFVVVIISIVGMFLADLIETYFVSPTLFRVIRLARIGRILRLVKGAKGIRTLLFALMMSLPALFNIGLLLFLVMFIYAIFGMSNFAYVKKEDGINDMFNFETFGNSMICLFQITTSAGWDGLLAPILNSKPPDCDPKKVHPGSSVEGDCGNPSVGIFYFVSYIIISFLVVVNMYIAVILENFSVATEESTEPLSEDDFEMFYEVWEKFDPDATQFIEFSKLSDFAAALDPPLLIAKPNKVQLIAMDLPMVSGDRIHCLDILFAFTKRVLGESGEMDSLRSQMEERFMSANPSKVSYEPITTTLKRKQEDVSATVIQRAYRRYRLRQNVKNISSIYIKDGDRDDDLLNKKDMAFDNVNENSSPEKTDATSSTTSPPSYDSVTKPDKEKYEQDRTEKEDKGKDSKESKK
In words: Whole-cell patch-clamp electrophysiology (conventional or PatchXpress), HEK cells expressing hSCN9A, estimated IC-50. The assay is classed as cell-based. Particulars: read-out: SCN9A EIC-50. The procedure, abridged:
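Stably transfected HEK cells recorded by whole-cell voltage clamp (manual or PatchXpress) at 22–24 °C in pH 7.4 HEPES-buffered extracellular solution. Cells held at the empirically determined inactivation V1/2 after an 8 s prepulse, then stepped to 0 mV for 20 ms; % inhibition from current amplitude before vs after compound.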

Where [3] appears, read: Table V, estimated IC-50 from single point electrophysiology, cells clamped at V1/2.
Where [4] appears, read: estimated IC-50, HEK cells expressing hSCN3A, class symbols or bounds.
Setting [5] is: estimated IC-50, HEK cells expressing hSCN9A, class symbols or bounds.

T1 sequence (Q9NY46 whole entry): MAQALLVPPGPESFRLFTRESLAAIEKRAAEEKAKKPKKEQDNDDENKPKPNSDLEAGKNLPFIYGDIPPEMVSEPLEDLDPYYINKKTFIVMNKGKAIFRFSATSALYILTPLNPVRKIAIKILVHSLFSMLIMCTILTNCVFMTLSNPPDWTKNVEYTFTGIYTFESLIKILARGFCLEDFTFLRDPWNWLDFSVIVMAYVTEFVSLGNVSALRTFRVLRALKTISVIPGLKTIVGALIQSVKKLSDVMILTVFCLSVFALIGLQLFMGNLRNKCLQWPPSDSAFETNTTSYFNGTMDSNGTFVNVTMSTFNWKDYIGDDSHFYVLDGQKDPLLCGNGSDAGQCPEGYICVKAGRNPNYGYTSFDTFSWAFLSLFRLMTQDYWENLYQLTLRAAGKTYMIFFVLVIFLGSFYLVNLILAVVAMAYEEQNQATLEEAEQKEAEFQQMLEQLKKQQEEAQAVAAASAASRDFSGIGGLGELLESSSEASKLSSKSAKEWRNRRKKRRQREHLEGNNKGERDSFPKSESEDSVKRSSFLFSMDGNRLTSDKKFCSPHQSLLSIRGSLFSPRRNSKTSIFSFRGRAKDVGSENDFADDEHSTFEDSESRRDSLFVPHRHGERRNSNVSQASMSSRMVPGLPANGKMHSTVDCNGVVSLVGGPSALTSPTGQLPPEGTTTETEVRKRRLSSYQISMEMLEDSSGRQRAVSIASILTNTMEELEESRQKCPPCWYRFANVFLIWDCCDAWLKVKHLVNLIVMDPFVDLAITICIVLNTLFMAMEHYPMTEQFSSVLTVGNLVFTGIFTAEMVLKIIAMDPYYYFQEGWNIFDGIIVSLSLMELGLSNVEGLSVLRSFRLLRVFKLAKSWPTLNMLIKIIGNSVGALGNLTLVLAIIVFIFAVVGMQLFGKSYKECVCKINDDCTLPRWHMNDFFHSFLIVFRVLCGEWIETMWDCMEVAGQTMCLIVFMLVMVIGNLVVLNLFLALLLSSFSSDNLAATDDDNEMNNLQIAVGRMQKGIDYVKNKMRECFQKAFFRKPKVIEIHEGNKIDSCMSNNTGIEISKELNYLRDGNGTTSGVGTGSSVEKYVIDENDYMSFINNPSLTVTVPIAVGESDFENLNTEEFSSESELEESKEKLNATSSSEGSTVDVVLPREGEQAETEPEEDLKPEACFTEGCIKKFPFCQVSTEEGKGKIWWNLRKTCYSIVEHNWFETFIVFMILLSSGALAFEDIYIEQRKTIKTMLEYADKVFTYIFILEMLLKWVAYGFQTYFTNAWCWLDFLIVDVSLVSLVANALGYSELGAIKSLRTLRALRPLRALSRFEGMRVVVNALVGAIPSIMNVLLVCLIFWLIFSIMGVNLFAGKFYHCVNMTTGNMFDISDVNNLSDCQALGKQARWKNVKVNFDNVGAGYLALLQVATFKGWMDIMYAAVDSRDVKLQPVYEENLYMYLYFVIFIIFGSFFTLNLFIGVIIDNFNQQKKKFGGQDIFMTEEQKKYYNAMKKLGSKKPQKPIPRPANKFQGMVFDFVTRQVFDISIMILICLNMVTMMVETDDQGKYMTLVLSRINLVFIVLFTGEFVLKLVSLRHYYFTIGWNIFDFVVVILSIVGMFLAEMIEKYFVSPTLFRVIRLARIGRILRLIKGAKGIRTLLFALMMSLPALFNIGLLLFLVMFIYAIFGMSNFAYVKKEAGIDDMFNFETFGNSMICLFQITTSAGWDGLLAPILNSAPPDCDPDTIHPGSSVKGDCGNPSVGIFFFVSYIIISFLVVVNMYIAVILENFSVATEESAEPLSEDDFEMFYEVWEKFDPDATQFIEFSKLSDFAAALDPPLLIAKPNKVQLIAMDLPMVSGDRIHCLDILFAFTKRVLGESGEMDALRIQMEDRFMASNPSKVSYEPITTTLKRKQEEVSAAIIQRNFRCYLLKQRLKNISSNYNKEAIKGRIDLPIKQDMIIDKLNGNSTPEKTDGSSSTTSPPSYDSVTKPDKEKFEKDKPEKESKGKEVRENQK

As to `O=S(=O)(Nc1nccs1)c1ccc(Nc2nc(Cc3ccc(Cl)cc3)cs2)cc1F` [Compound 1, 4-[4-(4-Chloro-benzyl)-thiazol-2-ylamino]-2-fluoro-N-thiazol-2-yl-benzenesulfonamide], the IC50 in assay [1] (setting [3]) and in assay [2] (setting [3]) was less than 2000 nM each time.

In the case of `O=S(=O)(Nc1nccs1)c1ccc(Nc2nc(C(c3ccccc3)c3ccccc3)cs2)cc1` [Compound 2, 4-(4-Benzhydrylthiazol-2-ylamino)-N-(thiazol-2-yl)benzenesulfonamide], the IC50 is less than 2000 nM in assay [1] (setting [3]) and 2000 to 10000 nM in assay [2] (setting [3]). In the same order, the values of `COc1ccc(Cc2csc(Nc3ccc(S(=O)(=O)Nc4nccs4)c(F)c3)n2)cc1` [Compound 3, 2-Fluoro-4-[4-(4-methoxy-benzyl)-thiazol-2-ylamino]-N-thiazol-2-yl-benzenesulfonamide] are less than 2000 nM and more than 10000 nM. In the same order, the values of `CS(=O)(=O)c1ccc(Cc2csc(Nc3ccc(S(=O)(=O)Nc4nccs4)c(F)c3)n2)cc1` [Compound 4, 2-Fluoro-4-[4-(4-methanesulfonyl-benzyl)-thiazol-2-ylamino]-N-thiazol-2-yl-benzenesulfonamide] are less than 2000 nM and 2000 to 10000 nM. On to `N#Cc1ccc(Cc2csc(Nc3ccc(S(=O)(=O)Nc4nccs4)c(F)c3)n2)cc1` [Compound 5, 4-[4-(4-Cyano-benzyl)-thiazol-2-ylamino]-2-fluoro-N-thiazol-2-yl-benzenesulfonamide], for which the results for the IC50 in assay [1] (setting [3]) and in assay [2] (setting [3]) were less than 2000 nM and 2000 to 10000 nM, respectively.

Consider `CN(c1ccc(S(=O)(=O)Nc2nccs2)c(F)c1)c1nc(Cc2ccc(Cl)cc2)cs1` [Compound 6, 4-[4-(4-Chloro-benzyl)-thiazol-2-yl]-methyl-amino-2-fluoro-N-thiazol-2-yl-benzenesulfonamide], for which the IC50 in assay [1] (setting [3]) and in assay [2] (setting [3]) was 2000 to 10000 nM each time. Consider `CC(C)(C)c1csc(Nc2ccc(S(=O)(=O)Nc3nccs3)c(F)c2)n1` [Compound 7, 4-(4-Tert-butyl-thiazol-2-ylamino)-2-fluoro-N-thiazol-2-yl-benzenesulfonamide], for which the IC50 was less than 2000 nM in assay [1] (setting [3]) and 2000 to 10000 nM in assay [2] (setting [3]). The like results for `Cc1nc(Nc2ccc(S(=O)(=O)Nc3nccs3)cc2)sc1C(C)(C)C` [Compound 8, 4-(5-Tert-butyl-4-methylthiazol-2-ylamino)-N-(thiazol-2-yl)benzenesulfonamide] were, in that order, less than 2000 nM and less than 2000 nM. The like results for `CC(=O)c1sc(Nc2ccc(S(=O)(=O)Nc3nccs3)c(F)c2)nc1C` [Compound 9, 4-(5-Acetyl-4-methyl-thiazol-2-ylamino)-2-fluoro-N-thiazol-2-yl-benzenesulfonamide] were, in that order, 2000 to 10000 nM and 2000 to 10000 nM. In the same order, the values of `CC(C)(C)c1csc(Nc2ccc(S(=O)(=O)Nc3nccs3)c(Cl)c2)n1` [Compound 10, 4-(4-Tert-butyl-thiazol-2-ylamino)-2-chloro-N-thiazol-2-yl-benzenesulfonamide] are less than 2000 nM and 2000 to 10000 nM. Turning to `CC(C)(C)c1csc(Nc2ccc(S(=O)(=O)Nc3nccs3)c(OC(F)(F)F)c2)n1` [Compound 11, 4-(4-tert-Butyl-thiazol-2-ylamino)-N-thiazol-2-yl-2-trifluoromethoxy-benzenesulfonamide], the IC50 in assay [1] (setting [3]) and in assay [2] (setting [3]) was 2000 to 10000 nM throughout.

Take `CC(C)(C)c1csc(Nc2ccc(S(=O)(=O)Nc3nccs3)c3ccccc23)n1` [Compound 12, 4-(4-tert-Butyl-thiazol-2-ylamino)-naphthalene-1-sulfonic acid thiazol-2-ylamide]: the IC50 was less than 2000 nM in assay [1] (setting [3]) and 2000 to 10000 nM in assay [2] (setting [3]). In the same order, the values of `Cc1nc(Nc2ccc(S(=O)(=O)Nc3nccs3)c(F)c2)sc1C(C)(C)C` [Compound 13, 4-(5-tert-butyl-4-methylthiazol-2-ylamino)-2-fluoro-N-(thiazol-2-yl)benzenesulfonamide] are less than 2000 nM and less than 2000 nM.

As to `O=S(=O)(Nc1nccs1)c1ccc(Nc2nc(CCCCl)cs2)cc1` [Compound 59, 4-(4-(3-chloropropyl)thiazol-2-ylamino)-N-(thiazol-2-yl)benzenesulfonamide], the IC50 in assay [1] (setting [4]) is less than 2000 nM. Same read-out and setting: to `COc1ccnc(Nc2ccc(S(=O)(=O)Nc3cc(C)on3)cc2)n1` [Compound 86, 4-(4-methoxypyrimidin-2-ylamino)-N-(5-methylisoxazol-3-yl)benzenesulfonamide] belongs more than 1000 nM; to `Cc1cc(NS(=O)(=O)c2ccc(Nc3nccc(OCc4ccc(C(F)(F)F)cc4)n3)cc2)no1` [Compound 87, N-(5-methylisoxazol-3-yl)-4-(4-(4-(trifluoromethyl)benzyloxy)pyrimidin-2-ylamino)benzenesulfonamide], more than 1000 nM; to `Cc1cc(NS(=O)(=O)c2ccc(Nc3ccnc(OCc4ccc(C(F)(F)F)cc4)n3)cc2)no1` [Compound 88, N-(5-methylisoxazol-3-yl)-4-(2-(4-(trifluoromethyl)benzyloxy)pyrimidin-4-ylamino)benzenesulfonamide], 2000 to 10000 nM. As for `Cc1cc(Nc2ccc(S(=O)(=O)Nc3nccs3)c(OC(F)(F)F)c2)n(-c2ccccc2)n1` [Compound 270, 4-(3-methyl-1-phenyl-1H-pyrazol-5-ylamino)-N-(thiazol-2-yl)-2-(trifluoromethoxy)benzenesulfonamide], the IC50 in assay [2] (setting [5]) is more than 1000 nM. On to `Cc1cc(Nc2ccn(Cc3ccc(Cl)cc3)n2)ccc1S(=O)(=O)Nc1nccs1` [Compound 271, 4-(1-(4-chlorobenzyl)-1H-pyrazol-3-ylamino)-2-methyl-N-(thiazol-2-yl)benzenesulfonamide], for which, in assay [2] (setting [5]), the IC50 is 2000 to 10000 nM. Still for that read-out and setting: in the case of `Cc1cc(Nc2ccc(S(=O)(=O)Nc3nccs3)c(C(F)(F)F)c2)n(-c2ccccc2)n1` [Compound 272, 4-(3-methyl-1-phenyl-1H-pyrazol-5-ylamino)-N-(thiazol-2-yl)-2-(trifluoromethyl)benzenesulfonamide] it was more than 1000 nM; in that of `N#Cc1cc(S(=O)(=O)Nc2ncns2)ccc1Nc1nnc(-c2ccccc2)c(O)n1` [Compound 273, 3-cyano-4-(5-hydroxy-6-phenyl-1,2,4-triazin-3-ylamino)-N-(1,2,4-thiadiazol-5-yl)benzenesulfonamide], more than 1000 nM; in that of `O=S(=O)(Nc1nccs1)c1ccc2c(cnn2Cc2ccc(OC(F)(F)F)cc2)c1` [Compound 274, N-(thiazol-2-yl)-1-(4-(trifluoromethoxy)benzyl)-1H-indazole-5-sulfonamide], less than 2000 nM.

Regarding `O=S(=O)(Nc1nccs1)c1ccc2nn(Cc3ccc(OC(F)(F)F)cc3)cc2c1` [Compound 275, N-(thiazol-2-yl)-2-(4-(trifluoromethoxy)benzyl)-2H-indazole-5-sulfonamide], the IC50 in assay [2] (setting [5]) was 2000 to 10000 nM. The same measure, in the same setting: to `O=S(=O)(Nc1nccs1)c1ccc2c(cnn2CCCCc2ccccc2)c1` [Compound 278, 1-(4-phenylbutyl)-N-(thiazol-2-yl)-1H-indazole-5-sulfonamide] belongs less than 2000 nM; to `O=S(=O)(Nc1nccs1)c1ccc2nn(CCCCc3ccccc3)cc2c1` [Compound 279, 2-(4-phenylbutyl)-N-(thiazol-2-yl)-2H-indazole-5-sulfonamide], 2000 to 10000 nM.
